In BindingDB's records for doi:10.1016/S1074-5521(99)80072-6 (Ligand Pharmaceuticals Inc, 1999):

Experiments:
[1] = biological target: T1, Vitamin D-binding protein (Homo sapiens, UniProt V9HWI6); assay: DBP Binding Assay; conditions: pH 7.4; 4 °C
T1 sequence (V9HWI6 whole entry): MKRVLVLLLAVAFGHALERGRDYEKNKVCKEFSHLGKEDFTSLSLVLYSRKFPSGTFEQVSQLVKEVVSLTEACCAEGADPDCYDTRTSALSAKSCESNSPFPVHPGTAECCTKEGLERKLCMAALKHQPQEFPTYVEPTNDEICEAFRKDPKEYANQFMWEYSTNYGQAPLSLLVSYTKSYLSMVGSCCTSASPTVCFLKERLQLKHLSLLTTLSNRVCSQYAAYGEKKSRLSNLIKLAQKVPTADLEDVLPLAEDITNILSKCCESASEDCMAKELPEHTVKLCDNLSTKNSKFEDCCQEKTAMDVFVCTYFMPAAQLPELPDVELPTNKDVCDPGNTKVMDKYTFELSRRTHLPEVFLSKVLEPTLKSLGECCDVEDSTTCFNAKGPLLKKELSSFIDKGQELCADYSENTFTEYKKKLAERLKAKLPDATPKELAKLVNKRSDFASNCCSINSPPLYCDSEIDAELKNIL
Excerpt: (§1) DBP competition binding assay were done using human serum (Scantibodies) or rat serum (Gibco-BRL).

Vitamin D3 receptor = biological target: T2, Vitamin D3 receptor (Homo sapiens, UniProt P11473); assay: VDR Ligand-Binding Assay; conditions: pH 7.5; 4 °C
T2 sequence (P11473 whole entry): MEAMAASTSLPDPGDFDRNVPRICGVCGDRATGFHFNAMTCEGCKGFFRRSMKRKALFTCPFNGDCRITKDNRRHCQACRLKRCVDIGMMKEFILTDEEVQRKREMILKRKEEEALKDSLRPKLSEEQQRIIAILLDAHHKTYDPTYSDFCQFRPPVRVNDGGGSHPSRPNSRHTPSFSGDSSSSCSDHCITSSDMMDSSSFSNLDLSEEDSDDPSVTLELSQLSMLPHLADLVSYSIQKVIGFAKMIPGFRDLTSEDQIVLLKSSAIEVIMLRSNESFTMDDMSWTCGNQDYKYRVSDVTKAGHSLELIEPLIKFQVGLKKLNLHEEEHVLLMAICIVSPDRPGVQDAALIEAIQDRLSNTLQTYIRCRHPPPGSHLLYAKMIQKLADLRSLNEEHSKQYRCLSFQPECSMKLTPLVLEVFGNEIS
Excerpt: VDR in vitro ligand-binding assay using human VDR constructed into a yeast expression plasmid.

[2] = biological target: T3, Vitamin D-binding protein (Rattus norvegicus, UniProt P04276); assay: DBP Binding Assay; conditions: pH 7.4; 4 °C
T3 sequence (P04276 whole entry): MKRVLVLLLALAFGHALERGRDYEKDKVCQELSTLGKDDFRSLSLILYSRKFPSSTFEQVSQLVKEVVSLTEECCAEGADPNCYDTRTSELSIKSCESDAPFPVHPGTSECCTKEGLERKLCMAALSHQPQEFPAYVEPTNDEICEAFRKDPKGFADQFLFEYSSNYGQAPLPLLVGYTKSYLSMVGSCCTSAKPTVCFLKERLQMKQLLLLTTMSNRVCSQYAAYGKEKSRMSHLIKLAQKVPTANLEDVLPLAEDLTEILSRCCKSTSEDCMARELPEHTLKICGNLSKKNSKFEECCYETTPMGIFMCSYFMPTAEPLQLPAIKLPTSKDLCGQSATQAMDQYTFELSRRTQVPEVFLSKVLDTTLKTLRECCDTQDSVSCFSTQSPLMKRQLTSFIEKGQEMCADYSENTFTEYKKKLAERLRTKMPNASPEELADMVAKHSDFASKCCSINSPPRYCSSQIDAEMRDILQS
Excerpt: as §1

Compound | IC50 [1] [nM] | Ki (Vitamin D3 receptor) [nM] | IC50 [2] [nM]
CC(C)(C)C(=O)COc1ccc(C(C)(C)c2ccc(OCC(=O)C(C)(C)C)c(Cl)c2)cc1Cl [LG190090] | > 1000 | > 1000 | –
CCC(CC)(c1ccc(OCC(=O)C(C)(C)C)c(C)c1)c1ccc(OCC(=O)C(C)(C)C)c(C)c1 [LG190155] | > 1000 | > 1000 | –
Cc1cc(C2(c3ccc(OCC(=O)C(C)(C)C)c(C)c3)CCCCC2)ccc1OCC(=O)C(C)(C)C [LG190119] | > 1000 | > 1000 | –
CCC(CC)(c1ccc(OCC(=O)C(C)(C)C)c(C)c1)c1ccc(OCC2CO2)c(C)c1 (configuration not stated) [LG190176] | > 1000 | > 1000 | –
C=C1/C(=C\C=C\C2CCC3(C)C(CCC3C(C)CCCC(C)(C)O)C2)C[C@@H](C)C[C@@H]1C (some centres not stated) [1,25(OH)2D3] | 200 | 0.5 | 40
CCC(CC)(c1ccc(OCC(=O)C(C)(C)C)c(C)c1)c1ccc(OCC(O)CO)c(C)c1 (configuration not stated) [LG190178] | > 1000 | – | –
